According to patent US10555959B2, “Glycolipids as treatment for disease” (La Jolla Pharmaceutical Company, priority 2009, dated 2020):

Legend:
SUR-1−/− Mice = details: cited from earlier work
mouse cortical cells = assay: Protection of cortical cells from apoptosis (hydrogen peroxide, MTT assay); type: cell-based; details: approx. 0.1 μM; 50 μM hydrogen peroxide; cell death by MTT assay
Experimental: To induce apoptosis, mouse cortical cells were cultured and treated with 50 μM hydrogen peroxide for three hours prior to being treated with the ganglioside analogue.
The cells were also treated with the hydrogen peroxide during treatment with the ganglioside analogue and post-treatment for 48 h. Cell death was assayed using the MTT assay.

[1] = tested on: C57B1/6 mice treated with MPTP; assay: Animal model of Parkinson's and atypical Parkinson's disease (MPTP); type: in vivo, mouse; details: daily administration for three weeks
Experimental: C57B1/6 mice 7-8 weeks of age can be treated with MPTP (b.i.d., 20 mg/kg, s.c.). The mice also receive a daily administration of saline, compound of formula (1), (2), (3), (4), (5), (6), (7), (8), (9) or (10) (1, 10 and 30 mg/kg, o.s.) or (0.3. to 3 mg/kg, i.p. or s.c.) for three weeks starting 24 h after the last MPTP injection. The brains are removed and analyzed for striatum and substantia nigra pars compacta dopamine levels. The midbrain is fixed for TH immunohistochemistry and dopamine neuron cell counts.

melanoma = details: cited from earlier work
human adippose tissue = details: human adipose tissue, in vitro; cited from earlier work
KATP channels = details: in vitro; by activation of the KATP channels; ceramide fatty acid of C16:0; cited from earlier work

Exendin-(9-39)
fasting blood glucose levels (SUR-1−/− Mice): Significantly Raises

Gal3GalNAc4(Neu5Ac3)Gal4GlcCer [GM1]
protection of the cells from apoptosis (mouse cortical cells): approximately 20%
striatal dopamine levels [1]: increase striatal dopamine levels to approximately the same extent

Gal3GalNAc4(Neu5Ac8Neu5Ac3)Gal4GlcCer [GD1b]
growth of melanoma (melanoma): suppress

Neu5Ac3Gal3GalNAc4(Neu5Ac8Neu5Ac3)Gal4GlcCer [GT1b]
growth of melanoma (melanoma): suppress

Neu5Ac8Neu5Ac3Gal3GalNAc4(Neu5Ac8Neu5c3)Gal4GlcCer [GQ1b]
growth of melanoma (melanoma): suppress

sulfatide
expression of adiponectin (human adippose tissue): increased
levels of IL-6 (human adippose tissue): decreasing
levels of IL-8 (human adippose tissue): decreasing
levels of TNF-alpha (human adippose tissue): decreasing
glucose stimulation of insulin secretion (KATP channels): inhibited
